Measured values published in US20260215425A1, “NITRIFICATION INHIBITORS” (The University of Melbourne, priority 2022, published 2026).

Assays:
N. europaea = experiment: standard nitrification inhibition assay (NO2- production, Griess); assay type: cell-based, Nitrosomonas europaea; details: [NH4+]=3 mM, [inhibitor]=0.3 mM (10 mol %), pH 7.5, 30° C., 60 min
Experimental: Cells of N. multiformis and N. europaea were cultivated to the mid-exponential growth phase (OD600=0.1, [NO2^−] approximately 800 μM) and harvested by filtration onto 0.2 μm membrane filters (Mixed Cellulose Ester (MCE), Sigma Aldrich). The cells were washed with 2×100 mL of 0.1 M sodium phosphate buffer (NaPB), containing 0.2 mM MgSO4 at pH 7.5. The cells were washed from the filter paper by transferring it to a sterile 50 mL tube and resuspending in NaPB (15 mL), followed by 5 s of vortexing (Ratek, Australia) and 3 s of sonication (Vevor, Australia). […] Experiments were performed in triplicate.
In a deep 96-well plate (2 mL capacity), 980 μL of the bacterial inoculum (OD600=0.03) was added to the inhibitor (10 μL, 30 mmol L^−1 in Milli-Q water), the solutions were mixed thoroughly and pre-incubated in the dark for 5 minutes at 100 rpm and 30° C. (NH4)2SO4 (10 μL, 150 mM, from a prepared sterile solution containing 19.8 g L^−1 (NH4)2SO4 in Milli-Q water) was then added using a multi-channel pipette. The plate was covered with a with an O2 permeable membrane to ensure aeration (Breathe-Easy® sealing membrane, Sigma Aldrich) and incubated in a temperature-regulated rotary incubator (Ratek, Australia) in the dark for 60 minutes at 30° C. and 100 rpm. An aliquot of the reaction solution ([…]) was transferred to a 96-well spectrophotometric plate to which 50 µL of Griess reagent was added. The colour was allowed to develop for 15 minutes at room temperature, and the absorbance was measured at 540 nm. Each assay was accompanied by control treatments to determine the 0% and 100% NO2 signal. The percentage inhibition was calculated according to eqn. 1 from the NO2 production of the cells in NaPB (i) without additive (‘untreated cells’: 0% signal), (ii) with [NH4^+]=3 mM (‘uninhibited’ cells: 100% signal) and (iii) with [NH4^+]=3 mM and [inhibitor]=0.3 mM and 0.03 mM (10 mol % and 1 mol % of [NH4^+], ‘inhibited cells’). Experiments were performed in triplicate.

[1] = system: N. europaea and N. multiformis; experiment: activity recovery assay (binding studies); assay type: cell-based; details: [inhibitor]=1.5 mM, 30 min, then washed and re-incubated with (NH4)2SO4
Experimental: Cells were harvested using the ‘standard cell harvesting protocol’. The bacteria solution was adjusted to an OD600=0.8 (100 μg/L protein) and 980 μL aliquots were transferred to 1.5 mL centrifuge tubes (Eppendorf®, polypropylene). 10 μL of the inhibitor solution (150 mM in DMSO) was added and pre-equilibrated for 5 min; 10 μL of aqueous 150 mM (NH4)2SO4 (final concentration in tube=3 mM) was added by via multichannel pipette to ensure simultaneous addition in each tube. The tubes were incubated in a temperature-regulated rotary incubator (Ratek, Australia) for 30 min at 30° C. at 100 rpm in the dark. After 30 minutes, a 50 μL aliquot was transferred to a 96-well plate (Greiner Cellstar®, polystyrene), 50 μL of Griess reagent was added and the mixture incubated for 15 minutes. The absorbance was measured photometrically (Clariostar® BMG Labtech, Australia) at 540 nm. The cells were washed repeatedly (3×) by periodic centrifuging (Boeco, Germany; 10.000 rpm, 10 min) and resuspending the pellet in 1 mL NaPB. After the final centrifuging step, the pellet was resuspended in 990 μL NaPB and re-incubated with (NH4)2SO4 (10 μL of an aqueous 150 mM solution), and the NO2 concentration was measured under the previously described conditions. Each assay was accompanied by control treatments to determine the 0% and 100% NO2 signal. […]

## C#CCn1cc(C)nn1 [Compound 4-MPT, 4-Methyl-1-(prop-2-yn-1yl)-1H-1,2,3-triazole]
N. europaea
  % Inhibition NE: 77%
[1]
  recovery of activity of cells after three washing steps: could not be recovered
